Values joined by “and” are separate entries in the source; they are usually repeats but may differ in a detail not shown here. Equal values may be shown once.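 In this assay, cells in 96-well plates receive the compound at five concentrations for 48 hours. Endpoints are linearly interpolated between the surrounding concentrations. At the GI50, growth is halved.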 Active and inactive are the calls of the source. Cut-off read from the data, not from the text of the source: active = GI50 up to about 1.1 µM and inactive = higher.
Key:
Assay in all cases: DTP human tumour cell line panel, 48 h
786-0 = system: 786-0
CAKI-1 = system: CAKI-1
HOP-62 = system: HOP-62
Hs-578T = system: Hs-578T
K562 = system: K562
MOLT-4 = system: MOLT-4
PC-3 = system: PC-3
RXF 393 = system: RXF 393
SF-539 = system: SF-539
SW-620 = system: SW-620
TK-10 = system: TK-10
A498 = system: A498
A549 = system: A549
ACHN = system: ACHN
CCRF-CEM = system: CCRF-CEM
COLO 205 = system: COLO 205
DU-145 = system: DU-145
EKVX = system: EKVX
HCC 2998 = system: HCC 2998
HCT-116 = system: HCT-116
HCT-15 = system: HCT-15
HL-60 = system: HL-60
HT-29 = system: HT-29
IGROV-1 = system: IGROV-1
KM12 = system: KM12
LOX IMVI = system: LOX IMVI
M14 = system: M14
MCF7 = system: MCF7
MDA-MB-231 = system: MDA-MB-231
MDA-MB-435 = system: MDA-MB-435
MDA-N = system: MDA-N
Malme-3M = system: Malme-3M
NCI-H226 = system: NCI-H226
NCI-H23 = system: NCI-H23
NCI-H460 = system: NCI-H460
NCI-H522 = system: NCI-H522
NCI/ADR-RES = system: NCI/ADR-RES
OVCAR-3 = system: OVCAR-3
OVCAR-4 = system: OVCAR-4
OVCAR-5 = system: OVCAR-5
OVCAR-8 = system: OVCAR-8
RPMI-8226 = system: RPMI-8226
SF-268 = system: SF-268
SF-295 = system: SF-295
SK-MEL-28 = system: SK-MEL-28
SK-MEL-2 = system: SK-MEL-2
SK-MEL-5 = system: SK-MEL-5
SK-OV-3 = system: SK-OV-3
SN12C = system: SN12C
SNB-19 = system: SNB-19
SNB-75 = system: SNB-75
SR = system: SR
T47D = system: T47D
U-251 = system: U-251
UACC-257 = system: UACC-257
UACC-62 = system: UACC-62
UO-31 = system: UO-31

Measured: GI50

CC(=O)OCC1OC(n2c(-c3ccccc3)c(/N=N/c3ccc(Cl)cc3)c(C)c(C#N)c2=S)C(OC(C)=O)C(OC(C)=O)C1OC(C)=O (stereo unspecified)
inactive: 786-0 19.5 µM and 23.9 µM | CAKI-1 24.3 µM and 14.3 µM | HOP-62 15.6 µM and 27.8 µM | Hs-578T 15.8 µM and 15.3 µM | K562 6.76 µM and 11.8 µM | MOLT-4 4.91 µM and 3.56 µM | PC-3 9.4 µM and 5.09 µM | RXF 393 17.4 µM and 13.2 µM | SF-539 14 µM and 19.6 µM | SW-620 7.01 µM and 12.4 µM | TK-10 33.8 µM and 24.6 µM

N=C(N)n1nc2c(c1O)CCCC2
> 100 µM: HCT-15
inactive: 786-0 > 100 µM | A498 8.22 µM | A549 > 100 µM | ACHN > 100 µM | CAKI-1 > 100 µM | CCRF-CEM > 100 µM | COLO 205 > 100 µM | DU-145 > 100 µM | EKVX > 100 µM | HCC 2998 > 100 µM | HCT-116 > 100 µM | HL-60 > 100 µM | HOP-62 > 100 µM | HT-29 > 100 µM | Hs-578T > 100 µM | IGROV-1 65.2 µM | K562 > 100 µM | KM12 > 100 µM | LOX IMVI > 100 µM | M14 > 100 µM | MCF7 > 100 µM | MDA-MB-231 > 100 µM | MDA-MB-435 > 100 µM | MDA-N > 100 µM | MOLT-4 > 100 µM | Malme-3M > 100 µM | NCI-H226 > 100 µM | NCI-H23 > 100 µM | NCI-H460 > 100 µM | NCI-H522 > 100 µM | NCI/ADR-RES > 100 µM | OVCAR-3 > 100 µM | OVCAR-4 > 100 µM | OVCAR-5 > 100 µM | OVCAR-8 > 100 µM | PC-3 > 100 µM | RPMI-8226 > 100 µM | RXF 393 > 100 µM | SF-268 > 100 µM | SF-295 > 100 µM | SF-539 > 100 µM | SK-MEL-28 > 100 µM | SK-MEL-2 > 100 µM | SK-MEL-5 > 100 µM | SK-OV-3 > 100 µM | SN12C > 100 µM | SNB-19 > 100 µM | SNB-75 14.5 µM | SR > 100 µM | SW-620 > 100 µM | T47D > 100 µM | TK-10 > 100 µM | U-251 > 100 µM | UACC-257 > 100 µM | UACC-62 > 100 µM | UO-31 > 100 µM

Cc1nc(O)c2ncn(CCO)c2n1
inactive: 786-0 > 100 µM | A498 > 100 µM | A549 > 100 µM | ACHN > 100 µM | CAKI-1 > 100 µM | CCRF-CEM > 100 µM | COLO 205 > 100 µM | DU-145 > 100 µM | EKVX > 100 µM | HCC 2998 > 100 µM | HCT-116 > 100 µM | HL-60 > 100 µM | HOP-62 > 100 µM | HT-29 > 100 µM | Hs-578T > 100 µM | IGROV-1 > 100 µM | K562 > 100 µM | KM12 > 100 µM | LOX IMVI > 100 µM | M14 > 100 µM | MCF7 > 100 µM | MDA-MB-231 > 100 µM | MDA-MB-435 > 100 µM | MDA-N > 100 µM | Malme-3M > 100 µM | NCI-H226 > 100 µM | NCI-H23 > 100 µM | NCI-H460 > 100 µM | NCI-H522 > 100 µM | NCI/ADR-RES > 100 µM | OVCAR-3 > 100 µM | OVCAR-4 > 100 µM | OVCAR-5 > 100 µM | OVCAR-8 > 100 µM | PC-3 > 100 µM | RXF 393 > 100 µM | SF-268 > 100 µM | SF-295 > 100 µM | SF-539 > 100 µM | SK-MEL-28 > 100 µM | SK-MEL-5 > 100 µM | SK-OV-3 > 100 µM | SN12C > 100 µM | SNB-19 > 100 µM | SNB-75 > 100 µM | SR > 100 µM | SW-620 > 100 µM | T47D > 100 µM | TK-10 > 100 µM | U-251 > 100 µM | UACC-257 > 100 µM | UACC-62 > 100 µM
> 100 µM: HCT-15

Source: ChEMBL document CHEMBL1201862, “PubChem BioAssay data set” (2004)
